In patent publication US8247211B2, “Glycopeptide antibiotics” (American Cyanamid Company, priority 2001, dated 2012):
Values after ≈ are worked out from the molar mass of the structure shown.

Legend:
Streptococcus sp. = assay: In vitro antibacterial evaluation: minimum inhibitory concentration (MIC), broth dilution method; format: cell-based
In short: (§1)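 MIC by broth dilution in Mueller-Hinton II medium following NCCLS M7-A2. Inoculum was 5×10^5 CFU/mL and antibiotic was tested over 64-0.06 μg/mL. Gram-positive panel included clinical isolates resistant to methicillin, penicillin and/or vancomycin.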

[1] = system: Staphylococcus aureus-SMITH (GC 4543); assay: Acute lethal infection in mice (ED50); format: in vivo; settings: female CD-1 mice, intraperitoneal challenge, intravenous dose 30 min. after infection, 7 day survival ratios
In short: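 Female CD-1 mice (20 ± 1-2 g) were infected intraperitoneally with enough bacteria, suspended in Trypticase Soy Broth or hog gastric mucin, to kill untreated controls within 24-48 hr. Compound in saline or 5% dextrose was given intravenously 30 min after infection. ED50 came from pooled 7-day survival over 3 tests.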

[2] = Anatomic pathology (heart and kidney histopathology) in mice; format: in vivo, CD-1 mice; settings: 20 mg/kg intravenously daily for 9 days, microscopic histopathology on day 10
Protocol: 20-day-old CD-1 mice were divided into a vehicle control group (5 mice) and a treatment group (5 mice). Samples of glycopeptide antibiotics were administered at 20 mg/kg intravenously daily for 9 days.
Samples of tissues from necropsied mice were formalin-fixed, paraffin-embedded, sectioned, stained with hematoxylin and eosin, and examined microscopically. Histopathologic findings were recorded. These findings were subjectively graded on a scale corresponding to slight, mild, moderate, marked and severe as compared to untreated controls.

Escherichia coli = assay: In vitro antibacterial evaluation: minimum inhibitory concentration (MIC), broth dilution method; format: cell-based; settings: strain GC 4560
In short: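 NCCLS M7-A2 broth dilution; Muller-Hinton II […]; 5×10^5 CFU/mL; 64-0.06 μg/mL. MIC = lowest concentration with no growth.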

Enterococcus sp. = assay: as above; format: cell-based; settings: for MIC Enterococcus avium (GC 4558): strain GC 4558
In short: as §1

Staphylococcus sp. = assay: as above; format: cell-based; settings: broth dilution, 18 hours at 35° C.
In short: as §1

[3] = Streptococcus pneumoniae (GC 1894), broth dilution, 18 hours at 35° C.
[4] = Streptococcus pneumoniae (GC 4565), broth dilution, 18 hours at 35° C.

SMILES	MIC Streptococcus pneumoniae (GC 1894) (Streptococcus sp.; [3]) [µg/mL]	MIC Streptococcus pneumoniae (GC 1894) (Streptococcus sp.; strain GC 1894) [µg/mL]	median effective dose (ED50), Staphylococcus aureus-SMITH (GC 4543) [1]	Anatomical Pathology (Day 10), Heart [2]	Anatomical Pathology (Day 10), Kidney [2]	MIC Escherichia coli (GC 4560) (Escherichia coli) [µg/mL]	also measured
CC(c1ccccc1)C1NC(=O)CNC(=O)C(CO)NC(=O)C(C(O)C2CN(Cc3ccccc3)C(=N)N2C2OC(CO)C(O)C(O)C2O)NC(=O)C(C(O)C2CNC(=N)N2)NC(=O)C(Cc2ccc(OC3OC(CO)C(OC4OC(CO)C(O)C(O)C4O)C(O)C3O)cc2)NC1=O (stereo not drawn) [Example 59, Cyclo[glycyl-β-methylphenylalanyl-O-(4-O-hexopyranosylhexopyranosyl)tyrosyl-(2-iminoimidazolidin-4-yl)seryl-3-[1-benzyl-3-hexopyranosyl-2-iminoimidazolidin-4-yl]serylseryl]]	64 (≈ 46.2 µM)	64 (≈ 46.2 µM)	>8	0	0		
CC(c1ccccc1)C1NC(=O)CNC(=O)C(CO)NC(=O)C(C(O)C2CN(Cc3ccc(C(C)(C)C)cc3)C(=N)N2C2OC(CO)C(O)C(O)C2O)NC(=O)C(C(O)C2CNC(=N)N2)NC(=O)C(Cc2ccc(OC3OC(CO)C(OC4OC(CO)C(O)C(O)C4O)C(O)C3O)cc2)NC1=O (stereo not drawn) [Example 60, Cyclo[glycyl-β-methylphenylalanyl-O-(4-O-hexopyranosylhexopyranosyl)tyrosyl-(2-iminoimidazolidin-4-yl)seryl-3-[1-(4-tert-butylbenzyl)-3-hexopyranosyl-2-iminoimidazolidin-4-yl]-serylseryl]]	64 (≈ 44.4 µM)	64 (≈ 44.4 µM)	>8	0	0	16 (≈ 11.1 µM)	
CC(c1ccccc1)C1NC(=O)CNC(=O)C(CO)NC(=O)C(C(O)C2CN(CCCCCCCCCCCCO)C(=N)N2C2OC(CO)C(O)C(O)C2O)NC(=O)C(C(O)C2CNC(=N)N2)NC(=O)C(Cc2ccc(OC3OC(CO)C(OC4OC(CO)C(O)C(O)C4O)C(O)C3O)cc2)NC1=O (stereo not drawn) [Example 61]	64 (≈ 43.3 µM)	64 (≈ 43.3 µM)	>8	0	+++	8 (≈ 5.41 µM)	MIC Enterococcus avium (GC 4558) (Enterococcus sp.): 64 µg/mL (≈ 43.3 µM); MIC Streptococcus pneumoniae (GC 4565) (Streptococcus sp.; [4]): 64 µg/mL (≈ 43.3 µM); MIC Streptococcus pneumoniae (GC 4565) (Streptococcus sp.; strain GC 4565): 64 µg/mL (≈ 43.3 µM)
CN=C1N(C)CC(C(O)C2NC(=O)C(Cc3ccc(OC4OC(CO)C(OC5OC(CO)C(O)C(O)C5O)C(O)C4O)cc3)NC(=O)C(C(C)c3ccccc3)NC(=O)CNC(=O)C(CO)NC(=O)C(C(O)C3CN(C)C(=NC)N3C3OC(CO)C(O)C(O)C3O)NC2=O)N1C (stereo not drawn) [Example 64, Cyclo[glycyl-β-methylphenylalanyl-O-(4-O-hexopyranosylhexopyranosyl)tyrosyl-3-(1,3-dimethyl-2-(methylimino)imidazolidin-4-yl)seryl-3-[3-hexopyranosyl-1-methyl-2-(methylimino)imidazolidin-4-yl]-serylseryl]]			>8	0	0		
CC(c1ccccc1)C1NC(=O)CNC(=O)C(CO)NC(=O)C(C(O)C2CN(Cc3ccccc3-c3ccccc3)C(=N)N2C2OC(CO)C(O)C(O)C2O)NC(=O)C(C(O)C2CNC(=N)N2)NC(=O)C(Cc2ccc(OC3OC(CO)C(OC4OC(CO)C(O)C(O)C4O)C(O)C3O)cc2)NC1=O (stereo not drawn) [Example 65]			>8	0	+++	32 (≈ 21.9 µM)	
CC(c1ccccc1)C1NC(=O)CNC(=O)C(CO)NC(=O)C(C(O)C2CN(Cc3ccc(-c4ccccc4)cc3)C(=N)N2C2OC(CO)C(O)C(O)C2O)NC(=O)C(C(O)C2CNC(=N)N2)NC(=O)C(Cc2ccc(OC3OC(CO)C(OC4OC(CO)C(O)C(O)C4O)C(O)C3O)cc2)NC1=O (stereo not drawn) [Example 66a]			>4	0	++	8 (≈ 5.47 µM)	
CC(c1ccccc1)C1NC(=O)CNC(=O)C(CO)NC(=O)C(C(O)C2CN(Cc3ccc4ccccc4c3)C(=N)N2C2OC(CO)C(O)C(O)C2O)NC(=O)C(C(O)C2CNC(=N)N2)NC(=O)C(Cc2ccc(OC3OC(CO)C(OC4OC(CO)C(O)C(O)C4O)C(O)C3O)cc2)NC1=O (stereo not drawn) [Example 67]	64 (≈ 44.6 µM)	64 (≈ 44.6 µM)	>8	0	0	32 (≈ 22.3 µM)	MIC Enterococcus avium (GC 4558) (Enterococcus sp.): 64 µg/mL (≈ 44.6 µM)
CC(c1ccccc1)C1NC(=O)CNC(=O)C(CO)NC(=O)C(C(O)C2CN(Cc3ccc(C(=O)O)cc3)C(=N)N2C2OC(CO)C(O)C(O)C2O)NC(=O)C(C(O)C2CNC(=N)N2)NC(=O)C(Cc2ccc(OC3OC(CO)C(OC4OC(CO)C(O)C(O)C4O)C(O)C3O)cc2)NC1=O (stereo not drawn) [Example 69, Cyclo[glycyl-β-methylphenylalanyl-O-(4-O-hexopyranosylhexopyranosyl)tyrosyl-3-(2-iminoimidazolidin-4-yl)seryl-3-[1-(4-carboxybenzyl)-2-imino-3-hexopyranosylimidazolidin-4-yl]-serylseryl]]			>8	0	0		
CCCCCCCN1CC(C(O)C2NC(=O)C(C(O)C3CNC(=N)N3)NC(=O)C(Cc3ccc(OC4OC(CO)C(OC5OC(CO)C(O)C(O)C5O)C(O)C4O)cc3)NC(=O)C(C(C)c3ccccc3)NC(=O)CNC(=O)C(CO)NC2=O)N(C2OC(CO)C(O)C(O)C2O)C1=N (stereo not drawn) [Example 71, Cyclo[glycyl-β-methylphenylalanyl-O-(4-O-hexopyranosylhexopyranosyl]tyrosyl-3-(2-iminoimidazolidin-4-yl)seryl-3-[1-heptyl-3-hexopyranosyl-2-iminoimidazolidin-4-yl]serylseryl]]			>8	0	0		
CC(c1ccccc1)C1NC(=O)CNC(=O)C(CO)NC(=O)C(C(O)C2CN(CCCCCCCCCCC(=O)O)C(=N)N2C2OC(CO)C(O)C(O)C2O)NC(=O)C(C(O)C2CNC(=N)N2)NC(=O)C(Cc2ccc(OC3OC(CO)C(OC4OC(CO)C(O)C(O)C4O)C(O)C3O)cc2)NC1=O (stereo not drawn) [Example 72, Cyclo[glycyl-β-methylphenylalanyl-O-(4-O-hexopyranosylhexopyranosyl)tyrosyl-3-(2-iminoimidazolidin-4-yl)seryl-3-[1-(10-carboxydecyl)-3-hexopyranosyl-2-iminoimidazolidin-4-yl]serylseryl]]	16 (≈ 10.8 µM)	16 (≈ 10.8 µM)	>8	0	++	32 (≈ 21.6 µM)	MIC Enterococcus faecalis (GC 4553) (Enterococcus sp.; strain GC 4553): 64 µg/mL (≈ 43.3 µM); MIC Enterococcus avium (GC 4558) (Enterococcus sp.): 64 µg/mL (≈ 43.3 µM); MIC Streptococcus pneumoniae (ATCC 6301) (Streptococcus sp.; Streptococcus pneumoniae (ATCC 6301), broth dilution, 18 hours at 35° C.): 64 µg/mL (≈ 43.3 µM); MIC Streptococcus pneumoniae (GC 4565) (Streptococcus sp.; [4]): 64 µg/mL (≈ 43.3 µM); MIC Streptococcus pyogenes (GC 4563) (Streptococcus sp.; Streptococcus pyogenes (GC 4563), broth dilution, 18 hours at 35° C.): 64 µg/mL (≈ 43.3 µM); MIC Streptococcus pneumoniae (ATCC 6301) (Streptococcus sp.; strain ATCC 6301): 64 µg/mL (≈ 43.3 µM); MIC Streptococcus pyogenes (GC 4563) (Streptococcus sp.; strain GC 4563): 64 µg/mL (≈ 43.3 µM); MIC Streptococcus pneumoniae (GC 4565) (Streptococcus sp.; strain GC 4565): 64 µg/mL (≈ 43.3 µM)
CN=C1N(C)CC(CC2NC(=O)C(Cc3ccc(OC4OC(CO)C(OC5OC(CO)C(O)C(O)C5O)C(O)C4O)cc3)NC(=O)C(C(C)c3ccccc3)NC(=O)CNC(=O)C(CO)NC(=O)C(CC3CN(C)C(=NC)N3C3OC(CO)C(O)C(O)C3O)NC2=O)N1C (stereo not drawn) [Example 74]			>8	0	0		
CN=C1N(C)CC(C(O)C2NC(=O)C(Cc3ccc(OC4OC(CO)C(OC5OC6COC7(OC6C(O)C5O)C5CC6CC(C5)CC7C6)C(O)C4O)cc3)NC(=O)C(C(C)c3ccccc3)NC(=O)CNC(=O)C(CO)NC(=O)C(C(O)C3CN(C)C(=NC)N3C3OC(CO)C(O)C(O)C3O)NC2=O)N1C (stereo not drawn) [Example 81]			>8	0	0		MIC Coagulase Negative Staphylococcus (GC 4547) (Staphylococcus sp.): >128 µg/mL; MIC Coagulase Negative Staphylococcus (GC 4548) (Staphylococcus sp.): >128 µg/mL; MIC Coagulase Negative Staphylococcus (GC 4549) (Staphylococcus sp.): >128 µg/mL; MIC Coagulase Negative Staphylococcus (GC 4551) (Staphylococcus sp.): >128 µg/mL; MIC Coagulase Negative Staphylococcus (GC 6257) (Staphylococcus sp.): >128 µg/mL; MIC Staphylococcus aureus (ATCC 29213) (Staphylococcus sp.): >128 µg/mL; MIC Staphylococcus aureus (GC 1131) (Staphylococcus sp.): >128 µg/mL; MIC Staphylococcus aureus (GC 3051) (Staphylococcus sp.): >128 µg/mL; MIC Staphylococcus aureus (GC 3053) (Staphylococcus sp.): >128 µg/mL; MIC Staphylococcus aureus (GC 4541) (Staphylococcus sp.): >128 µg/mL; MIC Staphylococcus aureus (GC 4542) (Staphylococcus sp.): >128 µg/mL; MIC Staphylococcus aureus (GC 4544) (Staphylococcus sp.): >128 µg/mL; MIC Staphylococcus aureus (GC 4545) (Staphylococcus sp.): >128 µg/mL; MIC Staphylococcus aureus SMITH (GC 4543) (Staphylococcus sp.): >128 µg/mL
